Measured values as given in patent US8466155B2, “Pyrimidines” (Boehringer Ingelheim International GmbH, priority 2009, dated 2013).

Biological target: T1, PTK2 (Homo sapiens, UniProt Q05397)
T1 construct: purchased Invitrogen PV3832
Assay: PTK2 enzyme test, Assay 1 (DELFIA, PT60 antibody)
Format: biochemical
Details: 1 h pre-incubation, 1 h kinase reaction, values without *
Protocol: This test uses active PTK2 enzyme (Invitrogen Code PV3832) and poly-Glu-Tyr (4:1, Sigma P-0275) as the kinase substrate. The kinase activity is detected through the phosphorylation of the substrate in a DELFIA™ assay. The phosphorylated substrate is detected with the europium-labelled phosphotyrosine antibody PT60 (Perkin Elmer, No.: AD00400).
In order to determine concentration-activity curves with PTK2-inhibitors the compounds are serially diluted in 10% DMSO/H20 and 10 μL of each dilution are placed in each well of a 96-well microtitre plate (clear plate with a U-shaped base, Greiner No. 650101) (the inhibitors are tested in duplicates) and mixed with 10 μL/well of PTK2 kinase (0.01 μg/well). PTK2 kinase has been correspondingly diluted beforehand with kinase dilution buffer (20 mM TRIS/HCl pH 7.5, 0.1 mM EDTA, 0.1 mM EGTA, 0.286 mM sodium orthovanadate, 10% glycerol with the addition of freshly prepared BSA (fraction V, 1 mg/mL) and DTT (1 mM)). The test compound and the PTK2 kinase are pre-incubated for 1 h at RT and shaken at 500 revolutions per min. The reaction is started by the addition of 10 μL/well poly (Glu,Tyr) substrate (25 μg/well poly (Glu, Tyr), 0.05 μg/well biotinylated poly (Glu,Tyr) dissolved in 250 mM TRIS/HCl pH 7.5, 9 mM DTT)—the final concentration of DMSO is 2%. Then 20 μL of ATP Mix (30 mM TRIS/HCl pH 7.5, 0.02% Brij, 0.2 mM sodium orthovanadate, 10 mM magnesium acetate, 0.1 mM EGTA, 1× phosphatase inhibitor cocktail 1 (Sigma, No.: P2850), 50 μM ATP (Sigma, No.: A3377; 15 mM stock solution)) are added. After 1 h of kinase reaction (the plates are shaken at 500 rpm), the reaction is stopped by the addition of 12 μL/well 100 mM EDTA, pH 8.0 and shaken for a further 5 min at RT (500 rpm). 55 μL of the reaction mixture are transferred into a streptavidin plate (Strepta Well High Bind (transparent, 96-well) made by Roche, No.: 11989685001) and incubated for 1 h at RT (shaking at 500 rpm). Then the microtitre plate is washed three times with 200 μL/well D-PBS (Invitrogen, No. 14190). 100 μL of a solution containing DELFIA Eu-N1 Anti-Phosphotyrosine PT60 antibody (Perkin Elmer, No.: AD0040, diluted 1:2000 in DELFIA test buffer (Perkin Elmer, No.: 1244-111)) is then added and the mixture is incubated for 1 h at RT (shaking at 500 rpm). Then the plate is washed three times with 200 μL/well DELFIA washing buffer (Perkin Elmer, No.: 1244-114), 200 μL/well strengthening solution (Perkin Elmer, No.: 1244-105) are added and the mixture is incubated for 10 min at RT (shaking at 300 rpm).
The time-delayed europium fluorescence is then measured in a microtitre plate reader (VICTOR^3, Perkin Elmer). […] Wells that contain test buffer instead of enzyme are used as a control of the background kinase activity.
The IC50 values are determined from analyses of the concentration activity by iterative calculation with the aid of a sigmoid curve analysis algorithm (FIFTY, based on GraphPAD Prism Version 3.03) with a variable Hill coefficient.

T1 sequence (Q05397 whole entry): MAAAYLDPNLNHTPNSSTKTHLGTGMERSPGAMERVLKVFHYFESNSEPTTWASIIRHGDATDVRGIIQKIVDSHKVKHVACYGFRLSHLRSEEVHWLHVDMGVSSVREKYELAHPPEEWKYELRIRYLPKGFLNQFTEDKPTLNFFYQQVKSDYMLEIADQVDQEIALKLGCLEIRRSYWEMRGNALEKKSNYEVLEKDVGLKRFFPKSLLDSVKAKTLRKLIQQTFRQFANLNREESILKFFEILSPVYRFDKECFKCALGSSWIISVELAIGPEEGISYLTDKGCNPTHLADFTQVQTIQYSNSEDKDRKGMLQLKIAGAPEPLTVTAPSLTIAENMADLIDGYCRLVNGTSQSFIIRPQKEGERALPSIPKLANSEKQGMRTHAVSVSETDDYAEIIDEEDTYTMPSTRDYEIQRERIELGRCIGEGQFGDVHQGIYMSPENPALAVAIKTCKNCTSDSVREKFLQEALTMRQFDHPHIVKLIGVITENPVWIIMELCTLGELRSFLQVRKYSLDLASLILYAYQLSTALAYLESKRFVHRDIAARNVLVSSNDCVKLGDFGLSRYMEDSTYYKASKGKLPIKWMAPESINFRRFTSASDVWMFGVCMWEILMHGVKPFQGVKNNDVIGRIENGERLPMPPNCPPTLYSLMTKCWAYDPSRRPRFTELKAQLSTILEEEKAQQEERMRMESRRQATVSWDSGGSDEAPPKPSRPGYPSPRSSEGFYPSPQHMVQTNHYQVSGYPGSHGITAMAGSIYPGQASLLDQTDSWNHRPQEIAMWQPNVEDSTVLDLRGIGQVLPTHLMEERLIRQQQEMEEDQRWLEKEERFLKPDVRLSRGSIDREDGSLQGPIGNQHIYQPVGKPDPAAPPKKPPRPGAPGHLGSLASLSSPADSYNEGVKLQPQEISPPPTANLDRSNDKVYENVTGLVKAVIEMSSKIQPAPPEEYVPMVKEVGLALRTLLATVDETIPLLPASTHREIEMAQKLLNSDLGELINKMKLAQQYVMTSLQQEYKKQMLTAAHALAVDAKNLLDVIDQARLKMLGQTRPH

Row | IC50 [nM] | SMILES
1 | 0.33 | COc1cc(C(=O)NN2CCN(C)CC2)ccc1Nc1ncc(C(F)(F)F)c(O[C@@H]2CCC[C@H]2N(C)S(C)(=O)=O)n1 [Example 89]
2 | 11 | COc1cc(C(=O)NCC(C)(C)C)ccc1Nc1ncc(C(F)(F)F)c(O[C@@H]2Cc3ccccc3[C@H]2N(C)S(C)(=O)=O)n1 [Example 15]
3 | 0.3 | COc1cc(C(=O)NN2CCN(C)CC2)ccc1Nc1ncc(C(F)(F)F)c(O[C@@H]2CCCC[C@H]2N(C)S(C)(=O)=O)n1 [Example 77, 4-{4-[(1R,2R)-2-(methanesulphonyl-methyl-amino)-cyclohexyloxy]-5-trifluoromethyl-pyrimidin-2-ylamino}-3-methoxy-N-(4-methyl-piperazin-1-yl)-benzamide]
4 | 0.45 | COc1cc(C(=O)NCCN(C)C)c(Cl)cc1Nc1ncc(C(F)(F)F)c(O[C@@H]2Cc3ccccc3[C@H]2NS(C)(=O)=O)n1 [Example 86]
5 | 1 | COc1cc(C(=O)NCCN(C)C)c(F)cc1Nc1ncc(C(F)(F)F)c(O[C@@H]2CCCC[C@H]2NS(C)(=O)=O)n1 [Example 106]
6 | 4 | COc1cc(C(=O)NN2CCN(C)CC2)c(F)cc1Nc1ncc(C(F)(F)F)c(O[C@@H]2CCC[C@H]2NS(C)(=O)=O)n1 [Example 98]
7 | 1 | COc1cc(C(=O)NC2CCN(C)CC2)c(F)cc1Nc1ncc(C(F)(F)F)c(O[C@@H]2Cc3ccccc3[C@H]2NS(C)(=O)=O)n1 [Example 24, 2-fluoro-4-[4-((1R,2R)-1-methanesulphonylamino-indan-2-yloxy)-5-trifluoromethyl-pyrimidin-2-ylamino]-5-methoxy-N-(1-methyl-piperidin-4-yl)-benzamide]
8 | 92 | COc1cc(C(=O)N(C)C)c(F)cc1Nc1ncc(Cl)c(O[C@@H]2Cc3ccccc3[C@H]2N(C)S(C)(=O)=O)n1 [Example 54]
9 | 2 | COc1cc(C(=O)NC2CCN(C)CC2)ccc1Nc1ncc(C(F)(F)F)c(O[C@@H]2Cc3ccccc3[C@H]2NC(C)=O)n1 [Example 68, 4-[4-((1R,2R)-1-acetylamino-indan-2-yloxy)-5-trifluoromethyl-pyrimidin-2-ylamino]-3-methoxy-N-(1-methyl-piperidin-4-yl)-benzamide]
10 | 6 | COc1cc(C(=O)NC[C@@H](O)CO)c(F)cc1Nc1ncc(C(F)(F)F)c(O[C@@H]2Cc3ccccc3[C@H]2N(C)S(C)(=O)=O)n1 [Example 64]
11 | 2 | COc1cc(C(=O)NCCn2ccnc2C)c(Cl)cc1Nc1ncc(Cl)c(O[C@@H]2Cc3ccccc3[C@H]2N(C)S(C)(=O)=O)n1 [Example 35]
12 | 2 | COc1cc(C(=O)NCCCN(C)C)c(Cl)cc1Nc1ncc(Cl)c(O[C@@H]2Cc3ccccc3[C@H]2N(C)S(C)(=O)=O)n1 [Example 41]
13 | 0.37 | COc1cc(C(=O)NN2CCN(C)CC2)c(F)cc1Nc1ncc(Cl)c(O[C@@H]2CCC[C@H]2N(C)S(C)(=O)=O)n1 [Example 88, 4-{5-chloro-4-[(1R,2R)-2-(methanesulphonyl-methyl-amino)-cyclopentyloxy]-pyrimidin-2-ylamino}-2-fluoro-5-methoxy-N-(4-methyl-piperazin-1-yl)-benzamide]
14 | 3 | COc1cc(C(=O)NCCN(C)C)ccc1Nc1ncc(C(F)(F)F)c(O[C@@H]2Cc3ccccc3[C@H]2N(C)S(C)(=O)=O)n1 [Example 14]
15 | 0.56 | COc1cc(C(=O)NCCN(C)C)ccc1Nc1ncc(C(F)(F)F)c(O[C@@H]2Cc3ccccc3[C@H]2NS(C)(=O)=O)n1 [Example 95]
16 | 5 | COc1cc(C(=O)NCCn2ccnc2C)c(F)cc1Nc1ncc(C(F)(F)F)c(O[C@@H]2Cc3ccccc3[C@H]2N(C)S(C)(=O)=O)n1 [Example 4]
17 | 0.31 | COc1ccc(C(=O)NCCN(C)C)cc1Nc1ncc(C(F)(F)F)c(O[C@@H]2Cc3ccccc3[C@H]2N(C)S(C)(=O)=O)n1 [Example 81]
18 | 1 | CONC(=O)c1cc(OC)c(Nc2ncc(Cl)c(O[C@@H]3Cc4ccccc4[C@H]3N(C)S(C)(=O)=O)n2)cc1Cl [Example 38]

Row | IC50 [nM] | SMILES
19 | 0.61 | COc1cc(C(=O)NC2CCN(C)CC2)c(Cl)cc1Nc1ncc(C(F)(F)F)c(O[C@@H]2CCC[C@H]2N(C)S(C)(=O)=O)n1 [Example 102, 2-chloro-4-{4-[(1R,2R)-2-(methanesulphonyl-methyl-amino)-cyclopentyloxy]-5-trifluoromethyl-pyrimidin-2-ylamino}-5-methoxy-N-(1-methyl-piperidin-4-yl)-benzamide]
20 | 0.31 | COc1cc(C(=O)NC2CCN(C)CC2)c(F)cc1Nc1ncc(C(F)(F)F)c(O[C@@H]2CCCC[C@H]2N(C)S(C)(=O)=O)n1 [Example 75, 2-fluoro-4-{4-[(1R,2R)-2-(methanesulphonyl-methyl-amino)-cyclohexyloxy]-5-trifluoromethyl-pyrimidin-2-ylamino}-5-methoxy-N-(1-methyl-piperidin-4-yl)-benzamide]
21 | 4 | COc1cc(C(=O)NCCN(C)C)c(F)cc1Nc1ncc(Cl)c(O[C@@H]2Cc3ccccc3[C@H]2N(C)S(C)(=O)=O)n1 [Example 53]
22 | 0.39 | COc1cc(C(=O)NC2CCN(C)CC2)c(F)cc1Nc1ncc(C(F)(F)F)c(O[C@@H]2CCCC[C@H]2NS(C)(=O)=O)n1 [Example 105]
23 | 0.26 | COc1cc(C(=O)NN2CCN(C)CC2)c(Cl)cc1Nc1ncc(C(F)(F)F)c(O[C@@H]2CCC[C@H]2N(C)S(C)(=O)=O)n1 [Example 100, 2-chloro-4-{4-[(1R,2R)-2-(methanesulphonyl-methyl-amino)-cyclopentyloxy]-5-trifluoromethyl-pyrimidin-2-ylamino}-5-methoxy-N-(4-methyl-piperazin-1-yl)-benzamide]
24 | 238 | COc1cc(C(=O)NC2CCN(C)CC2)ccc1Nc1ncc(C(F)(F)F)c(O[C@H]2Cc3ccccc3[C@H]2N(C)S(C)(=O)=O)n1 [Example 70]
25 | 3 | COc1cc(C(=O)NC[C@H](O)CO)c(Cl)cc1Nc1ncc(Cl)c(O[C@@H]2Cc3ccccc3[C@H]2N(C)S(C)(=O)=O)n1 [Example 36]
26 | 0.44 | COc1cc(C(=O)NCCN(C)C)c(Cl)cc1Nc1ncc(C(F)(F)F)c(O[C@@H]2CCCC[C@H]2NS(C)(=O)=O)n1 [Example 108]
27 | 3 | COc1cc(C(=O)NCCCN(C)C)ccc1Nc1ncc(C(F)(F)F)c(O[C@@H]2Cc3ccccc3[C@H]2N(C)S(C)(=O)=O)n1 [Example 20]
28 | 103 | COc1cc(C(=O)NC2CCN(C)CC2)c(F)cc1Nc1ncc(C(F)(F)F)c(O[C@@H]2CCC[C@H]2NS(=O)(=O)C(F)(F)F)n1 [Example 107]
29 | 0.32 | COc1cc(C(=O)NC2CCN(C)CC2)c(Cl)cc1Nc1ncc(Cl)c(O[C@@H]2CCC[C@H]2N(C)S(C)(=O)=O)n1 [Example 84, 2-chloro-4-{5-chloro-4-[(1R,2R)-2-(methanesulphonyl-methyl-amino)-cyclopentyloxy]-pyrimidin-2-ylamino}-5-methoxy-N-(1-methyl-piperidin-4-yl)-benzamide]
30 | 3 | COc1cc(C(=O)NC2CCN(C)CC2)c(Cl)cc1Nc1ncc(C(F)(F)F)c(O[C@@H]2CCC[C@H]2NS(=O)(=O)CCl)n1 [Example 47]
31 | 0.35 | COc1cc(C(=O)NCCN(C)C)c(Cl)cc1Nc1ncc(C(F)(F)F)c(O[C@@H]2CCCC[C@H]2N(C)S(C)(=O)=O)n1 [Example 109]
32 | 5 | COc1cc(C(=O)NC[C@H](O)CO)ccc1Nc1ncc(C(F)(F)F)c(O[C@@H]2Cc3ccccc3[C@H]2N(C)S(C)(=O)=O)n1 [Example 49]
33 | 42 | COc1cc(C(=O)NC2CCN(C)CC2)ccc1Nc1ncc(C(F)(F)F)c(O[C@@H]2Cc3ccccc3[C@@H]2N(C)S(C)(=O)=O)n1 [Example 69]
34 | 22 | COc1cc(C(=O)NC2CCN(C)CC2)c(Cl)cc1Nc1ncc(C(F)(F)F)c(O[C@@H]2CCC[C@H]2NS(=O)(=O)C2CC2)n1 [Example 48]
35 | 174 | COc1cc(C(=O)NC2CCN(C)CC2)ccc1Nc1ncc(C(F)(F)F)c(O[C@@H]2Cc3ccccc3[C@@H]2NC(C)=O)n1 [Example 72]
36 | 34 | COc1cc(C(=O)NC2CCN(C)CC2)c(F)cc1Nc1ncc(C(F)(F)F)c(O[C@@H]2CCC[C@H]2NS(=O)(=O)C2CC2)n1 [Example 46]
